The source of these data is patent US9732088B2, “C2-carbocyclic iminothiazine dioxides as BACE inhibitors, compositions, and their use” (Merck Sharp & Dohme Corp., priority 2014, dated 2017).

Molecules are shown by their SMILES. pKi: −log10 of the molar value.

What all share (assay type): biochemical
In test [1] the target is soluble human BACE-1 catalytic domain (Homo sapiens (Human), UniProt P56817). Put plainly: BACE-1 Ki Assay (BACE-1 HTRF FRET Assay). Conditions: Assay 1; Ki calculated from IC50 by Cheng-Prusoff. Summed up: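 Recombinant human BACE-1 catalytic domain (3 nM in 10 μl) preincubated with inhibitor 30 min at 30° C, pH 5.0 acetate buffer with 7.5% DMSO, then 200 nM final QSY7-APPswe-Eu substrate for 1.5 h; 620 nm time-resolved fluorescence read. IC50 from nonlinear regression converted to Ki by Cheng-Prusoff using Km 8 μM.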

Test [2] has as its target purified human autoBACE-2 (Homo sapiens (Human), UniProt Q9Y5Z0). Description: BACE-2 Assay (BACE-HTRF assay). The settings on record: Assay 2; Ki calculated from IC50 by Cheng-Prusoff; read-out: BACE2 Ki. In a few lines:
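Purified human autoBACE-2 (1 nM final) pre-incubated 30 min at 30° C with compounds in 20 mM sodium acetate pH 5.0, 10% glycerol, 0.1% Brij-35, 5% DMSO final; endpoint HTRF cleavage of QSY7/Eu FRET peptide, read at 620 nm (320 nm excitation). IC50 by sigmoidal regression of normalized data; Ki by Cheng-Prusoff.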

Test [3] addresses purified human Cathepsin-D (Homo sapiens (Human), UniProt P07339). Put plainly: Cathepsin-D Assay (time-resolved FRET).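 Further: Europium-labelled peptide substrate with QSY7 quencher, cleavage read as 620 nm fluorescence after 30 min preincubation then 30 min reaction at 30 °C, pH 5.0, inhibition lowers signal.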 Conditions: Assay 4; Ki calculated from IC50 by Cheng-Prusoff.
Description: Assay 4: Cathepsin-D Assay
This substrate contains an C-terminal QSY7 moiety that serves as a quencher of the N-terminal Europium fluorophore (620 nm Em). In the absence of enzyme activity, 620 nm fluorescence is low in the assay and increased linearly over 1 hour in the presence of uninhibited Cathepsin-D enzyme. Inhibition of Cathespin D cleavage of the Eu-Aspartyl Protease-QSY7 substrate by inhibitors is manifested as a suppression of 620 nm fluorescence.
Varying concentrations of inhibitors in a volume of 100 nl are preincubated with purified human Cathepsin-D (0.1 nM in 10 μl) for 30 minutes at 30° C. in reaction buffer containing 100 mM Na-Acetate pH 5.0, and 0.02% Brij-35. Reactions are initiated by addition of 10 μl of 100 nM Eu-Aspartyl Protease-QSY7 substrate (50 nM final) to give a final reaction volume of 20 μl in a 384 well Nunc HTRF plate. The reactions are incubated at 30° C. for 30 minutes. The 620 nm fluorescence is then read on a Envision Multilabel plate reader (Perkin-Elmer) using a 200 microsecond delay followed by a 400 microsecond acquisition time window. Inhibitor IC50 values are derived from non-linear regression analysis of concentration response curves.

purified human autoBACE-2, sequence (Q9Y5Z0 63-466): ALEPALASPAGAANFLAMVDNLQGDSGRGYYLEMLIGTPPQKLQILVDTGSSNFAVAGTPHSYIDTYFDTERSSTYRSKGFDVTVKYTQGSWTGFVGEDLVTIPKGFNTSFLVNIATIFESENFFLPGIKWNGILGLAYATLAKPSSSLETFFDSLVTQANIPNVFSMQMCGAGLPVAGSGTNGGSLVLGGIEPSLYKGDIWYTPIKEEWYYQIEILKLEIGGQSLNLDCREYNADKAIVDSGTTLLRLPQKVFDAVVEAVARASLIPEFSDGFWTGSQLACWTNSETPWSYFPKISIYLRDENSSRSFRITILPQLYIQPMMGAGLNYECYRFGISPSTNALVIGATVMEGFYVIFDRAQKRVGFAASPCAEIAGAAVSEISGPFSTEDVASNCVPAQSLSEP
soluble human BACE-1 catalytic domain, sequence (P56817 75-416): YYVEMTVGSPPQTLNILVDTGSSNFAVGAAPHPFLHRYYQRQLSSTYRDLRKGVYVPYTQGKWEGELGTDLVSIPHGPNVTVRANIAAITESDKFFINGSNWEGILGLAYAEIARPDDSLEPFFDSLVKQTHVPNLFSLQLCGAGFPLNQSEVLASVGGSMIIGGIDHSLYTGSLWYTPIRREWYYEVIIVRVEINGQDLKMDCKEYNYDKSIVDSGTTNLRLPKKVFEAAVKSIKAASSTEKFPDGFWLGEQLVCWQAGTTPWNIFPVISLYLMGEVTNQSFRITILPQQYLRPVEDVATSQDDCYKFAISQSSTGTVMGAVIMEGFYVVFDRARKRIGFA
purified human Cathepsin-D, sequence (P07339 65-412): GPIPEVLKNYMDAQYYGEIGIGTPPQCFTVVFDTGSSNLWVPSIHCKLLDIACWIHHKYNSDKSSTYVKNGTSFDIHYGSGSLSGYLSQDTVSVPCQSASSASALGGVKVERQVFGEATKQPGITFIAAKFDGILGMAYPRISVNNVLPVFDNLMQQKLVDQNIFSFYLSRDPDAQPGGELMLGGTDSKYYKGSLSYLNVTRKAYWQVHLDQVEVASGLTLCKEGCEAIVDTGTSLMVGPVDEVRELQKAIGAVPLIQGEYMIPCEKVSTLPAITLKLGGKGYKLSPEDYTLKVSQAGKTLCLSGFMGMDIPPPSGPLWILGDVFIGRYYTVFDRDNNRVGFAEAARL

Usually pKi stands for the Ki on a negative log10 scale, so that one unit is a factor of ten. `CC1(C)C(=N)N[C@](C)(c2cc(Nc3noc4cc(F)cnc34)ccc2F)CS1(=O)=O` [WO′426 Ex. 30b, reference compound]: the pKi in test [1] is 7.72; in test [2] it was 8.21.

The Ki is a dissociation constant, usually derived from enzyme kinetics or from competition with a known ligand. For the compound `C[C@@]1(c2nc(Nc3nccc4cc(C#N)cnc34)ncc2F)CS(=O)(=O)[C@@](C)(C2CC2)C(N)=N1` [Example 5, 8-({4-[(3R,6S)-6-cyclopropyl-5-imino-3,6-dimethyl-1,1-dioxidothiomorpholin-3-yl]-5-fluoropyrimidin-2-yl}amino)-1,7-naphthyridine-3-carbonitrile], the pKi in test [1] was 8.06; in test [2], 8.11. The Ki in test [3] was 710 nM.

Regarding `COc1cnc2c(Nc3ccc(F)c([C@]4(C)CS(=O)(=O)[C@@](C)(C5CC5)C(N)=N4)c3)nccc2c1` [Example 14, N-{3-[(3R,6S)-6-cyclopropyl-5-imino-3,6-dimethyl-1,1-dioxidothiomorpholin-3-yl]-4-fluorophenyl}-3-methoxy-1,7-naphthyridin-8-amine], the pKi in test [1] was 8.03; in test [2], 8.55. The Ki in test [3] was 1650 nM.

For the compound `C[C@@]1(c2cc(Nc3ncnc4cc(C#N)cnc34)ccc2F)CS(=O)(=O)[C@@](C)(C2CC2)C(N)=N1` [Example 16, 4-({3-[(3R,6S)-6-cyclopropyl-5-imino-3,6-dimethyl-1,1-dioxidothiomorpholin-3-yl]-4-fluorophenyl}amino)pyrido[3,2-d]pyrimidine-7-carbonitrile], the figures for the pKi in test [1] and in test [2] were 8.66 and 8.85, respectively. The Ki in test [3] was 2450 nM.

In the case of `COc1cnc2c(Nc3cc([C@]4(C)CS(=O)(=O)[C@@](C)(C5CC5)C(N)=N4)c(F)cn3)nccc2c1` [Example 6, N-{4-[(3R,6S)-6-cyclopropyl-5-imino-3,6-dimethyl-1,1-dioxidothiomorpholin-3-yl]-5-fluoropyridin-2-yl}-3-methoxy-1,7-naphthyridin-8-amine], the pKi in test [1] was 8.59; in test [2] it was 9.24. In addition, the Ki in test [3] was greater than 9400 nM.

Turning to `COc1cnc2c(Nc3ccc(F)c([C@]4(C)CS(=O)(=O)[C@@](C)(C5CC5)C(N)=N4)c3)ncnc2n1` [Example 22, (2S,5R)-2-cyclopropyl-5-(2-fluoro-5-((7-methoxypteridin-4-yl)amino)phenyl)-3-imino-2,5-dimethylthiomorpholine 1,1-dioxide], the negative logarithm of the Ki (pKi) is 7.85 in test [1] and 7.96 in test [2]. For the same compound, the Ki in test [3] was greater than 9400 nM.

`C[C@@]1(c2cc(Nc3nccc4cc(C#N)cnc34)ccc2F)CS(=O)(=O)[C@@](C)(C2CC2)C(N)=N1` [Example 18, 8-({3-[(3R,6S)-6-cyclopropyl-5-imino-3,6-dimethyl-1,1-dioxidothiomorpholin-3-yl]-4-fluorophenyl}amino)-1,7-naphthyridine-3-carbonitrile]: the pKi in test [1] is 8.80; in test [2] it was 9.19. Moreover, the Ki in test [3] was 651 nM.

For the compound `COc1cnc2c(Nc3ccc(F)c([C@]4(C)CS(=O)(=O)C(C)(C)C(N)=N4)c3)nccc2n1` [Ex 47 of WO2014059185, reference compound], the pKi in test [1] is 8.48.
